# The supplement of paper PMC10307832
# How the values were obtained:
# Test in all cases: relative viability (nuclei count vs DMSO), 5 days (fraction); higher = more cells survive
# XMD13-2 + Dasatinib = compound: C1CC1C(=O)NC2=NNC3=C2C=CC(=C3)C4=CC(=CC=C4)C(=O)NC5CC5 [XMD13-2] + Cc1nc(Nc2ncc(C(=O)Nc3c(C)cccc3Cl)s2)cc(N2CCN(CCO)CC2)n1 [Dasatinib] (partner 0.075 µM)
# Procedure, shortened: (§1)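 Dosing by pin tool came one day after lung cancer cell lines were seeded in 1536-well plates, using either one drug or a fixed anchor-drug dose plus five library-drug doses (not always all listed) in √10 steps. After 5 days, nuclei were counted on 4× images. Relative viability is treated-well nuclei count divided by vehicle-well nuclei count, and values are medians of duplicate plates.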
# ALW-II-49-7 + Lapatinib = compound: Cc1ccc(C(=O)Nc2cccc(C(F)(F)F)c2)cc1Nc1cncc(C(N)=O)c1 [ALW-II-49-7] + CS(=O)(=O)CCNCc1ccc(-c2ccc3ncnc(Nc4ccc(OCc5cccc(F)c5)c(Cl)c4)c3c2)o1 [Lapatinib] (partner 2 µM)
# Procedure, shortened: as §1
# ALW-II-49-7 + Pictilisib = compound: Cc1ccc(C(=O)Nc2cccc(C(F)(F)F)c2)cc1Nc1cncc(C(N)=O)c1 [ALW-II-49-7] + CS(=O)(=O)N1CCN(Cc2cc3nc(-c4cccc5[nH]ncc45)nc(N4CCOCC4)c3s2)CC1 [Pictilisib] (partner 1 µM)
# Procedure, shortened: as §1
# ALW-II-49-7 + Vorinostat = compound: Cc1ccc(C(=O)Nc2cccc(C(F)(F)F)c2)cc1Nc1cncc(C(N)=O)c1 [ALW-II-49-7] + O=C(CCCCCCC(=O)Nc1ccccc1)NO [Vorinostat] (partner 1 µM)
# Procedure, shortened: as §1
cell line,measurement,setting,value
UMC-11,relative viability,XMD13-2 + Dasatinib; first compound 0.05 µM,0.55
same,relative viability,XMD13-2 + Dasatinib; first compound 0.1581 µM,0.428
same,relative viability,XMD13-2 + Dasatinib; first compound 0.5 µM,0.477
same,relative viability,XMD13-2 + Dasatinib; first compound 1.581 µM,0.505
same,relative viability,XMD13-2 + Dasatinib; first compound 5 µM,0.453
same,relative viability,ALW-II-49-7 + Lapatinib; first compound 0.08 µM,0.943
same,relative viability,ALW-II-49-7 + Lapatinib; first compound 0.253 µM,1.08
same,relative viability,ALW-II-49-7 + Lapatinib; first compound 0.8 µM,0.998
same,relative viability,ALW-II-49-7 + Lapatinib; first compound 2.53 µM,1.04
same,relative viability,ALW-II-49-7 + Lapatinib; first compound 8 µM,0.806
same,relative viability,ALW-II-49-7 + Pictilisib; first compound 0.08 µM,0.917
same,relative viability,ALW-II-49-7 + Pictilisib; first compound 0.253 µM,0.807
same,relative viability,ALW-II-49-7 + Pictilisib; first compound 2.53 µM,1.06
same,relative viability,ALW-II-49-7 + Pictilisib; first compound 8 µM,0.814
same,relative viability,ALW-II-49-7 + Vorinostat; first compound 0.08 µM,0.36
same,relative viability,ALW-II-49-7 + Vorinostat; first compound 0.253 µM,0.381
same,relative viability,ALW-II-49-7 + Vorinostat; first compound 0.8 µM,0.324
same,relative viability,ALW-II-49-7 + Vorinostat; first compound 2.53 µM,0.357
same,relative viability,ALW-II-49-7 + Vorinostat; first compound 8 µM,0.305
